How the values were obtained:
MDA-MB-231 cells = test: Test A cell proliferation assay (FFA/linolenic acid stimulated, S-phase by flow cytometry); type: cell-based, human; details: linolenic acid 100 μM, 24 hours; Compounds X and Y 10 μM, Compound Z 40 μM; FIGS. 1c, 2A-2C
Method: Dulbecco's modified Eagle's medium (D-MEM)+1000 mg/L Glucose+GlutaMAX™1+Pyruvate (Gibco #21885-025)
PEST (100 U/ml penicillin, 100 ug/ml streptomycin, Gibco 15140-122) CyStain PI absolute T Kit (Partec #05-5023) Linolenic acid 99%, L2376 from Sigma Aldrich Dimethyl sulfoxide (DMSO)
Cytomics™ FC500 Flow Cytometer with CXP software (Beckman Coulter) MDA-MB-231 cells
MDA-MB-231 cells were cultured in the propagation media D-MEM+1000 mg/L Glucose+GlutaMAX™1+Pyruvate supplemented with 10% V/V Foetal Bovine Serum and PEST (100 U/ml penicillin, 100 μg/mL streptomycin). Cells were seeded in 6 well plates to a density of 300 000 cells/well in propagation media. After 24 hours, media was replaced with serum free D-MEM media.
Linolenic acid was diluted in DMSO to a concentration of 100 mM and added to the culture media to a final concentration of 100 μM.
Compounds were as dissolved in DMSO to a concentrations of 10 mM (Compounds of Examples 95 and 6 (Compound X and Compound Y, respectively)) and 40 mM (Compound of Example 4 (Compound Z)) and added to the culture media to a final concentration of 10 μM (X and Y) and 40 μM (Z) respectively.
After 24 hours in serum free media DMEM, linolenic acid (to a final concentration of […]) and compounds to be screened for activity were added to a final concentration of 10 μM (Compounds X and Y) and 40 μM (Compound Z) respectively. Final DMSO concentration was kept at 0.2% in all wells. After 24 hours of stimulation, cells were harvested and propidium iodine stained using a CyStain PI absolute T Kit according to manufacturer's recommendations. Cells were subsequently analyzed using a Cytomics™ FC500 Flow Cytometer with CXP software (Beckman Coulter) for cell cycle distribution. Cells were incubated with or without linolenic acid (LA) and the Compounds X, Y and Z for 24 hours at indicated concentrations. Cells in S-phase from untreated sample were set to 100% in each experiment.

[1] = test system: MDA-MB-231 human breast cancer cells; test: Test B in vivo mouse model, tumor histology; parameters: species or system Athymic BALB/cA nude mice; details: 1 mg/kg intraperitoneal once daily for 9 days; for cell density in the interior of the tumor section / cells displaying macrophage/monocyte morphology in the interior of the tumor section: hematoxylin stained cryosections, versus vehicle
Method: week old Athymic BALB/cA nude mice were delivered from Taconic (Denmark) and kept under barrier conditions for 1 week acclimatisation. At 6 weeks, 17 mice were injected subcutaneously on the flank with 1.8×10^6 MDA-MB-231 human breast cancer cells (LGC Promochem-ATCC) in a 50/50 v/v solution of phosphate buffered saline (PBS) (Gibco 10010-015, Invitrogen) Matrigel HC (BD Biosciences).
2 mice were sacrificed and the tumors dissected and examined. 2 groups of 7 mice each were treated once daily by intraperitoneal injections of 1 mg/kg bodyweight of the compound of Example 6 (Compound Y) in PBS/1% v/v dimethylsufoxide or vehicle control respectively for 9 days. The mice were sacrificed by cervical dislocation and tumors were dissected.
The tumor tissue were fixated overnight in PBS (containing 4% w/v paraformaldehyde (Scharlau PA0095, Sharlau Chemie SA, Spain) at +4° C. The tumor tissue were then cryopreserved by 24 hour incubation in PBS containing 30% w/v sucrose (BDH #102745C (www.vwr.com) at +4° C. and embedded in Tissue-Tek embedding media (Sakura Finetek Europa BV, Netherlands). 10 μm cryosections were generated an stained with Mayers Hematoxylin (Dako) for 5 min and destained for 3×10 minutes in tap water. Slides were mounted using Dako faramount aqueous mounting medium and examined using a Nikon Eclipse TS 100 microscope documented using a Nikon coolpix 4500.
The tumors from mice treated with test compound and vehicle were analyzed for morphology by microscopic examination of hematoxylin stained cryosections.

SMILES | antagonism of free fatty acid stimulated cell proliferation (MDA-MB-231 cells) | cells displaying fibroblast morphology in the interior of the tumor section ([1]; hematoxylin stained cryosection, 20× magnification) | cell density in the interior of the tumor section [1] | cells displaying macrophage/monocyte morphology in the interior of the tumor section [1] | cell density in the interior of the tumor section ([1]; listed as test compound) | cells displaying macrophage/monocyte morphology in the interior of the tumor section ([1]; listed as test compound)
O=C1NC(=Nc2ccccn2)SC1Cc1ccc(F)cc1 (centres unmarked) [Compound X, 5-(4-Fluorobenzyl)-2-(pyridin-2-ylimino)thiazolidin-4-one] | able to antagonize free fatty acid stimulated cell proliferation | – | – | – | – | –
O=C1NC(=Nc2ccc(Cl)cc2)SC1Cc1cccc(C(F)(F)F)c1 (centres unmarked) [Compound Y, 5-(3-(Trifluoromethyl)benzyl)-2-(4-chlorophenylimino)thiazolidin-4-one] | able to antagonize free fatty acid stimulated cell proliferation | lack of cells displaying fibroblast morphology | low cell density | accumulation of cells displaying morphology indicative of macrophage/monocyte | markedly reduced | a frequent finding
Cc1ccc(N=C2NC(=O)C(Cc3cccc(C(F)(F)F)c3)S2)cc1 (centres unmarked) [Compound Z, 5-(3-(Trifluoromethyl)benzyl)-2-(p-tolylimino)thiazolidin-4-one] | able to antagonize free fatty acid stimulated cell proliferation | – | – | – | – | –
